Key:
Experiment in all cases: relative viability (nuclei count vs DMSO), 5 days (fraction); higher = more cells survive
Sorafenib + Luminespib = compound: CNC(=O)c1cc(Oc2ccc(NC(=O)Nc3ccc(Cl)c(C(F)(F)F)c3)cc2)ccn1 [Sorafenib] + CCNC(=O)c1noc(-c2cc(C(C)C)c(O)cc2O)c1-c1ccc(CN2CCOCC2)cc1 [Luminespib] (partner 0.01 µM)
In short: (§1)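 Lung cancer cell lines were pin-tool dosed in 1536-well plates on the day after seeding, with either a lone drug or a fixed anchor-drug dose plus five library-drug doses (not always all listed) in √10 steps. Nuclei were counted on 4× images after 5 days. Relative viability is the ratio of treated-well to vehicle-well nuclei counts, with each value a median of duplicate plates.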

Sorafenib + Pictilisib = compound: CNC(=O)c1cc(Oc2ccc(NC(=O)Nc3ccc(Cl)c(C(F)(F)F)c3)cc2)ccn1 [Sorafenib] + CS(=O)(=O)N1CCN(Cc2cc3nc(-c4cccc5[nH]ncc45)nc(N4CCOCC4)c3s2)CC1 [Pictilisib] (partner 1 µM)
In short: as §1

Sorafenib + Navitoclax = compound: CNC(=O)c1cc(Oc2ccc(NC(=O)Nc3ccc(Cl)c(C(F)(F)F)c3)cc2)ccn1 [Sorafenib] + CC1(C)CCC(c2ccc(Cl)cc2)=C(CN2CCN(c3ccc(C(=O)NS(=O)(=O)c4ccc(N[C@H](CCN5CCOCC5)CSc5ccccc5)c(S(=O)(=O)C(F)(F)F)c4)cc3)CC2)C1 [Navitoclax] (partner 0.5 µM)
In short: as §1

Sorafenib + Trametinib = compound: CNC(=O)c1cc(Oc2ccc(NC(=O)Nc3ccc(Cl)c(C(F)(F)F)c3)cc2)ccn1 [Sorafenib] + CC(=O)Nc1cccc(-n2c(=O)n(C3CC3)c(=O)c3c(Nc4ccc(I)cc4F)n(C)c(=O)c(C)c32)c1 [Trametinib] (partner 0.02 µM)
In short: as §1

Sorafenib + Crizotinib = compound: CNC(=O)c1cc(Oc2ccc(NC(=O)Nc3ccc(Cl)c(C(F)(F)F)c3)cc2)ccn1 [Sorafenib] + C[C@@H](Oc1cc(-c2cnn(C3CCNCC3)c2)cnc1N)c1c(Cl)ccc(F)c1Cl [Crizotinib] (partner 1 µM)
In short: as §1

Cell Line	relative viability (Sorafenib + Luminespib; first compound 0.08 µM)	relative viability (Sorafenib + Luminespib; first compound 2.53 µM)	relative viability (Sorafenib + Luminespib; first compound 8 µM)	relative viability (Sorafenib + Pictilisib; first compound 0.08 µM)	relative viability (Sorafenib + Pictilisib; first compound 0.253 µM)	relative viability (Sorafenib + Pictilisib; first compound 2.53 µM)	relative viability (Sorafenib + Pictilisib; first compound 8 µM)	relative viability (Sorafenib + Navitoclax; first compound 0.08 µM)	relative viability (Sorafenib + Navitoclax; first compound 0.253 µM)	relative viability (Sorafenib + Navitoclax; first compound 2.53 µM)	relative viability (Sorafenib + Navitoclax; first compound 8 µM)	relative viability (Sorafenib + Trametinib; first compound 0.08 µM)	relative viability (Sorafenib + Trametinib; first compound 0.253 µM)	relative viability (Sorafenib + Trametinib; first compound 2.53 µM)	relative viability (Sorafenib + Trametinib; first compound 8 µM)	relative viability (Sorafenib + Crizotinib; first compound 0.08 µM)	relative viability (Sorafenib + Crizotinib; first compound 0.253 µM)	relative viability (Sorafenib + Crizotinib; first compound 2.53 µM)	relative viability (Sorafenib + Crizotinib; first compound 8 µM)	relative viability (Sorafenib + Luminespib; first compound 0.253 µM)
NCI-H23	0.225	0.228	0.213	0.474	0.445	0.39	0.362	0.996	0.768	0.806	0.705	0.406	0.397	0.288	0.225	0.566	0.427	0.689	0.427	–
NCI-H322M	1.03	1.24	1.06	–	0.593	0.62	0.695	1.19	1.25	1.34	1.16	0.769	0.52	0.455	0.481	0.945	0.848	0.894	0.859	1.03
NCI-H441	0.326	0.29	0.287	0.524	0.476	0.409	0.445	0.488	0.431	0.471	0.417	0.564	0.408	0.457	0.27	0.727	0.64	0.532	0.473	–
NCI-H460	0.0329	0.0236	0.0147	–	0.442	0.51	0.3	1.2	1.02	1.12	0.231	0.225	0.154	0.126	0.0388	1.02	0.777	0.918	0.502	0.0278
NCI-H520	0.21	0.232	0.218	0.337	0.322	0.307	0.188	1.21	1.08	–	0.358	0.934	0.403	0.518	0.217	0.912	0.695	0.67	0.581	0.216
NCI-H596	0.889	0.977	0.911	0.354	0.436	0.374	0.372	0.892	1.13	1.02	1.02	0.844	0.735	0.807	0.75	0.963	0.982	1.06	0.957	1.04
NCI-H647	0.182	0.148	0.15	0.544	–	0.475	0.374	1.2	1.09	0.97	0.538	0.583	0.388	0.235	0.144	1.05	0.972	0.867	0.395	0.0896
NCI-H727	0.528	0.501	0.221	0.332	0.337	0.257	0.311	0.604	0.632	0.675	0.369	0.416	0.351	0.391	0.367	0.979	0.797	0.706	0.357	0.344
NCI-H838	0.346	0.402	0.243	0.516	0.412	0.77	0.38	1.23	1.26	1.29	–	0.606	0.507	0.498	0.291	0.931	0.946	0.991	0.903	0.33
NCI-H1355	0.717	0.779	0.62	0.444	0.465	0.45	0.346	0.916	0.983	0.86	0.668	0.493	0.419	0.42	0.264	1.16	1.04	1.04	1.11	0.687
NCI-H1437	1.1	1.17	–	0.483	0.393	0.364	0.238	1.05	1.03	0.91	0.438	0.59	0.389	0.533	0.342	0.941	0.827	0.844	0.496	1.06
NCI-H1650	0.183	0.193	0.209	0.691	0.529	0.71	0.308	1.2	1.1	1.29	1.29	0.858	0.499	0.752	0.241	0.961	1.1	1.01	–	0.183
NCI-H1651	0.965	0.958	0.319	0.688	0.517	0.555	0.445	1.04	0.985	1.04	0.472	0.853	0.791	0.835	0.74	0.863	0.866	0.845	0.877	0.778
NCI-H1666	–	0.951	0.872	0.497	0.407	0.451	0.331	1.01	0.953	0.752	0.577	0.954	0.764	0.762	0.639	1.01	0.899	–	0.487	1.03
NCI-H1734	0.235	0.186	0.161	0.465	0.469	0.471	0.248	0.858	0.721	0.721	0.492	0.71	0.646	0.577	0.324	0.746	0.625	0.66	0.426	0.131
NCI-H1755	0.67	0.371	0.404	0.466	0.422	0.417	0.263	1.02	0.987	0.924	0.705	0.8	0.761	0.71	0.557	0.917	0.817	0.874	0.615	0.399

Cell Line	relative viability (Sorafenib + Luminespib; first compound 0.08 µM)	relative viability (Sorafenib + Luminespib; first compound 2.53 µM)	relative viability (Sorafenib + Luminespib; first compound 8 µM)	relative viability (Sorafenib + Pictilisib; first compound 0.08 µM)	relative viability (Sorafenib + Pictilisib; first compound 0.253 µM)	relative viability (Sorafenib + Pictilisib; first compound 2.53 µM)	relative viability (Sorafenib + Pictilisib; first compound 8 µM)	relative viability (Sorafenib + Navitoclax; first compound 0.08 µM)	relative viability (Sorafenib + Navitoclax; first compound 0.253 µM)	relative viability (Sorafenib + Navitoclax; first compound 2.53 µM)	relative viability (Sorafenib + Navitoclax; first compound 8 µM)	relative viability (Sorafenib + Trametinib; first compound 0.08 µM)	relative viability (Sorafenib + Trametinib; first compound 0.253 µM)	relative viability (Sorafenib + Trametinib; first compound 2.53 µM)	relative viability (Sorafenib + Trametinib; first compound 8 µM)	relative viability (Sorafenib + Crizotinib; first compound 0.08 µM)	relative viability (Sorafenib + Crizotinib; first compound 0.253 µM)	relative viability (Sorafenib + Crizotinib; first compound 2.53 µM)	relative viability (Sorafenib + Crizotinib; first compound 8 µM)	relative viability (Sorafenib + Luminespib; first compound 0.253 µM)
NCI-H1792	0.438	0.534	0.353	0.34	0.23	0.278	0.39	0.671	0.51	0.585	0.544	0.527	0.461	0.421	0.177	1.05	0.973	1	0.87	0.358
NCI-H1915	0.848	–	0.751	0.875	0.911	0.958	0.866	0.785	0.706	0.681	0.798	0.322	0.289	0.204	0.125	0.892	0.786	0.829	0.907	0.678
NCI-H1944	0.697	–	0.552	0.368	0.332	0.365	0.274	1.06	1.06	1.18	0.872	0.384	0.436	0.367	0.253	1.12	1	1.08	0.912	0.634
NCI-H1975	0.426	0.24	0.153	0.312	0.308	0.376	0.286	1.01	1.1	1.18	0.853	0.526	0.32	0.291	0.242	0.988	1.03	0.985	0.466	0.201
NCI-H1993	0.921	0.999	0.543	0.833	0.788	0.707	0.677	1.07	0.973	0.914	0.753	0.515	0.521	0.529	0.506	0.988	1	1.08	0.851	0.489
NCI-H2009	1.03	0.915	0.476	0.866	0.621	0.752	0.265	1.11	1.02	1.1	0.937	0.339	0.282	0.204	0.159	0.972	0.921	0.915	0.603	0.868
NCI-H2023	0.828	0.826	0.136	0.301	0.269	0.263	0.181	1.02	0.984	1.01	0.978	0.686	0.539	0.459	0.112	0.66	–	0.713	0.357	0.761
NCI-H2085	0.483	0.424	0.448	0.541	0.444	0.549	0.481	1.21	1.07	1.17	0.901	0.643	0.464	0.43	0.391	0.938	1.01	0.965	0.717	0.414
NCI-H2087	0.192	0.236	0.123	1.02	0.787	0.609	0.349	1.05	0.772	0.892	0.29	0.19	0.233	0.199	0.15	0.83	0.746	0.784	0.308	0.183
NCI-H2126	0.981	0.882	0.864	0.498	0.505	0.618	0.54	0.892	0.782	0.888	0.867	0.581	0.541	0.623	0.589	0.998	0.984	1.09	0.962	–
NCI-H2170	0.527	0.706	0.592	0.323	0.348	0.369	0.255	0.615	0.57	0.64	0.502	0.896	0.805	0.99	0.804	1.34	1.08	1.14	1.05	0.707
NCI-H2228	0.181	0.154	0.105	0.384	0.375	0.337	0.529	0.784	0.706	0.828	0.477	0.802	0.377	0.356	0.266	0.474	0.511	0.727	0.262	0.178
NCI-H2347	0.625	0.763	0.62	0.956	0.479	0.641	0.493	0.932	0.676	0.84	0.815	0.3	0.308	0.266	0.314	0.796	0.559	0.491	0.525	0.433
NCI-H2405	0.868	0.79	0.446	0.539	0.39	0.363	0.293	1.16	0.88	0.7	0.348	0.784	0.461	0.413	0.324	0.884	0.767	–	0.76	0.705
NCI-H3122	0.11	0.0728	0.044	0.762	0.671	0.604	0.234	1.04	1.06	1.03	0.753	0.234	0.208	0.176	0.129	0.29	0.317	0.326	0.293	0.105

Source: the supplement of paper PMC10307832
